Legend:
[1] = biological target: T1, glucan synthase (Candida albicans, UniProt O13428); test: β(1,3) glucan synthase assay, C. albicans BWP17 membrane preparation (IC50); assay type: biochemical; details: in vitro fungal enzyme activity assay, read-out: IC50 (μg/mL) Candida albicans (converted)
T1 construct: glucan synthase sources (2 μL permeabilized PM503 cells, or 3 μL membrane preparations from either PM503, BWP17, or ND158); endogenous in cells; host or cells: C. albicans strain BWP17, 100,000 g membrane fraction
T1 sequence (O13428 1-1897): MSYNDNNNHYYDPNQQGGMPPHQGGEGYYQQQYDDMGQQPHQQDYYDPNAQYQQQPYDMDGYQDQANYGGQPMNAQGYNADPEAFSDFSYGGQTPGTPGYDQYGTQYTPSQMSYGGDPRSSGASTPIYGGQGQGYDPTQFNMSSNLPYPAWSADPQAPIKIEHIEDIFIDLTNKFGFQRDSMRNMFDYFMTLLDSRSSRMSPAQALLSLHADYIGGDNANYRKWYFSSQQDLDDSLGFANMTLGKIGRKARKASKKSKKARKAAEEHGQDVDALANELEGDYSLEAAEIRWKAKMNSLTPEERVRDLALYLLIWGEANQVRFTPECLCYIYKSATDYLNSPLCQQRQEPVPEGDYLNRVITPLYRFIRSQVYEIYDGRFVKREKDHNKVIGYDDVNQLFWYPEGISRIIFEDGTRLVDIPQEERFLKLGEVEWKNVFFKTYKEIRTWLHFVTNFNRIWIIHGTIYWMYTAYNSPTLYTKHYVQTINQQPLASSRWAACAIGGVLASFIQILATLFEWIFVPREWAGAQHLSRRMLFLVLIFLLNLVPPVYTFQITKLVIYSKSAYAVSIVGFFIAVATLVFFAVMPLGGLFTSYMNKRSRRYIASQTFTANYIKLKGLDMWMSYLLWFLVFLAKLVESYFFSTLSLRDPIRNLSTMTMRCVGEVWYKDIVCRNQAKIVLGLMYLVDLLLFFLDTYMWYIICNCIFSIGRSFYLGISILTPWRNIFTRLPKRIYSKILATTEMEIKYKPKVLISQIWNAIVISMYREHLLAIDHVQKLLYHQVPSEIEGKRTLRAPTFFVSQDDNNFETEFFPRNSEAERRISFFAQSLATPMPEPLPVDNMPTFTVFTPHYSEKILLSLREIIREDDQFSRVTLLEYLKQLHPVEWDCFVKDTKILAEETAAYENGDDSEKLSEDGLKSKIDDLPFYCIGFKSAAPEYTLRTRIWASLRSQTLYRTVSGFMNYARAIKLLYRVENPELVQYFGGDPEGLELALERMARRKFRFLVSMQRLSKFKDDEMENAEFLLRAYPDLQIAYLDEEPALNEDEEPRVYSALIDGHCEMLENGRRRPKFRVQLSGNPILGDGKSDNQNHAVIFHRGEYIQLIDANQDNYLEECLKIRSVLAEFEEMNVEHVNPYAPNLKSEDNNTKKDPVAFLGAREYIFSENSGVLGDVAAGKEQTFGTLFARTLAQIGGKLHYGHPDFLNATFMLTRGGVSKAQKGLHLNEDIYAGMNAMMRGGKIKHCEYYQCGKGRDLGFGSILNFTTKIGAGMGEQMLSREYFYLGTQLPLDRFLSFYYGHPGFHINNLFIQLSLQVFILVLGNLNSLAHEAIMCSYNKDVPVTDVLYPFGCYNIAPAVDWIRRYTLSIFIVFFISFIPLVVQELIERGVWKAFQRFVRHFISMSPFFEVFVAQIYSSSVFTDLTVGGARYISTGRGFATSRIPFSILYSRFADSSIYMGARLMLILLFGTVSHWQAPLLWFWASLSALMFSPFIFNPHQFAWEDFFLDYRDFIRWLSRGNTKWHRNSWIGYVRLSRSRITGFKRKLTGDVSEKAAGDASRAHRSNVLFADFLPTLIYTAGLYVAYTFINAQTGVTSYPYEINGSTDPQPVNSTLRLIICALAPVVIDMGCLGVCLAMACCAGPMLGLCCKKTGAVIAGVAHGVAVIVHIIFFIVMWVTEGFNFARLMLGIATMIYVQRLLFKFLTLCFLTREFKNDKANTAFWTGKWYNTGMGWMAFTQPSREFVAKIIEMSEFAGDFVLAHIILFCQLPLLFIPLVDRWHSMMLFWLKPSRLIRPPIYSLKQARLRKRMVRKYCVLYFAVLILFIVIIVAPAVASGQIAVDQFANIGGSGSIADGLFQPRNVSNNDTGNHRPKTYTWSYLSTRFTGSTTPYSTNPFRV
T1 sequence (O42825 1-195 partner limits assumed): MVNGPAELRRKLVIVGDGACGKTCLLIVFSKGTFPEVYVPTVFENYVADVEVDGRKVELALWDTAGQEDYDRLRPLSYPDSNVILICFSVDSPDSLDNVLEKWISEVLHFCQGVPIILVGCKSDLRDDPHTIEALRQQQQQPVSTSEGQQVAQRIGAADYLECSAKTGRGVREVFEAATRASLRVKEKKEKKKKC
Method: (§1) β(1,3) Glucan Synthase Assay:
(§2) 2. Preparation of Membrane Fraction of Yeast Cells
(§3) The protocol was modified from Douglas et al. (Journal of Bacteriology, 176, 5686-5696, 1994). For the preparation of S. cerevisiae and C. albicans membrane fractions, 1 liter of YPD supplemented with 0.02 mg/mL adenine and 0.08 mg/mL uracil was inoculated with 10 mL starter culture of PM503 (OD600=4) or the C. albicans strain BWP17 (OD600=12) in the same medium and grown at 30° C. until OD600 reached about 1. A. fumigatus (stain ND158) membranes were prepared by first preparing a spore suspension from agar slants by adding 6 mL of sterile saline, 0.1% Tween-20 solution to each slant, and resuspending by pipetting and scraping. The spore suspensions were used to inoculate two 200 mL flasks containing Sabouraud dextrose broth media. Cultures were incubated at 37° C., 250 rpm for ˜8 hrs. All cells, S. cerevisiae, C. albicans or A. fumigatus were harvested by centrifugation at 5,300 g at 4° C. for 40 minutes. After washing with 100 mL of breakage buffer (0.1 M KPi, pH 7.0, 1 mM EDTA, 1 mM DTT), the cell pellet was resuspended in 50 ml ice-cold breakage buffer. The mixture was transferred to a bead-beater chamber packed in ice (BioSpec Products, Bartlesville, Okla.). To each 50 mL sample was added 50 g of acid-washed glass beads ([…], Sigma). Cells were disrupted using 12×20 second pulses with 2 min-cooling intervals. Cell debris was removed by centrifugation at 3,000 g for 20 minutes at 4° C., and the supernatant was collected and centrifuged at 100,000 g for 1 hour at 4° C. to pellet the membrane fraction. The pellet was resuspended in 5 mL of ice-cold breakage buffer containing 25% glycerol, homogenized with a Dounce tissue homogenizer and stored at −80° C. in small aliquots.
(§4) 3. Glucan Synthase Assay and Compound Screening
The assay was performed according to Mo et at (Journal of Biological Chemistry, 269, 31267-31274, 1994) and Taft et al. (The Journal of Antibiotics, 47, 1001-1009, 1994), in a 96-well Optiplate (PerkinElmer). To each well was added 3 μL 10× compound stock (in 100% DMSO), or 3 μL of 30 μg/mL caspofungin in 100% DMSO (as positive control), or 3 μL 100% DMSO (as negative control), followed by the addition of appropriate amount of glucan synthase sources (2 μL permeabilized PM503 cells, or 3 μL membrane preparations from either PM503, BWP17, or ND158). The reaction was initiated by adding 25 μL reaction buffer (0.6 mM UDP-Glucose 0.6 nCi [U-^14C]DUP-Glucose (327 mCi/mmol, Amersham Bioscience), 20 μM GTP-γ-S, 25 mM NaF, 7.5 mg/mL BSA, 8% glycerol in 75 mM Tris-HCl, pH 7.5). The plate was incubated on a shaker for 1.5 hour at room temperature before being quenched with 250 μL 1% TCA (Trichloroacetic Acid). The quenched reaction was mixed by pipetting, and immediately transferred to a 96-well filter plate (Glass fiber B on 0.65 μm hydrophilic durapore membrane, Millipore) pre-wetted with wash buffer (5% TCA, 60 mM NaPPi). The glucan product was retained on the filter membrane by applying vacuum to the plate using a MultiScreen Resist Vacuum Manifold (Millipore). The filter plate was further washed 4 times with 200 μL wash buffer. The plate was dried at 50° C. for 30 minutes. 100 μL of Microscint-0 (PerkinElmer) was added to each well, and plate was counted in a TopCount NXT plate reader (PerkinElmer).
Dose-response curves were plotted from inhibition data generated. IC50 was determined by fitting the CPM versus the Concentration of the test compound plot with the following equation (4-parameter logistic model, ID Business Solutions XLfit 4.2).

[2] = biological target: T2, glucan synthase (Saccharomyces cerevisiae, UniProt P38631); test: β(1,3) glucan synthase assay, S. cerevisiae PM503 permeabilized cells or membrane preparation (IC50); assay type: biochemical
T2 construct: glucan synthase sources (2 μL permeabilized PM503 cells, or 3 μL membrane preparations from either PM503, BWP17, or ND158); endogenous in cells; host or cells: S. cerevisiae strain PM503, permeabilized cells or 100,000 g membrane fraction
T2 sequence (P06780 1-206): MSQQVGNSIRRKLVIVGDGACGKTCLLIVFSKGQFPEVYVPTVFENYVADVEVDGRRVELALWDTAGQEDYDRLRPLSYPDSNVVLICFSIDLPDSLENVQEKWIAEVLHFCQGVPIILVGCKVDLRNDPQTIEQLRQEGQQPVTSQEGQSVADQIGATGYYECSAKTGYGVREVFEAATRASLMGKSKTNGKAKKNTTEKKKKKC
T2 sequence (P38631 whole entry): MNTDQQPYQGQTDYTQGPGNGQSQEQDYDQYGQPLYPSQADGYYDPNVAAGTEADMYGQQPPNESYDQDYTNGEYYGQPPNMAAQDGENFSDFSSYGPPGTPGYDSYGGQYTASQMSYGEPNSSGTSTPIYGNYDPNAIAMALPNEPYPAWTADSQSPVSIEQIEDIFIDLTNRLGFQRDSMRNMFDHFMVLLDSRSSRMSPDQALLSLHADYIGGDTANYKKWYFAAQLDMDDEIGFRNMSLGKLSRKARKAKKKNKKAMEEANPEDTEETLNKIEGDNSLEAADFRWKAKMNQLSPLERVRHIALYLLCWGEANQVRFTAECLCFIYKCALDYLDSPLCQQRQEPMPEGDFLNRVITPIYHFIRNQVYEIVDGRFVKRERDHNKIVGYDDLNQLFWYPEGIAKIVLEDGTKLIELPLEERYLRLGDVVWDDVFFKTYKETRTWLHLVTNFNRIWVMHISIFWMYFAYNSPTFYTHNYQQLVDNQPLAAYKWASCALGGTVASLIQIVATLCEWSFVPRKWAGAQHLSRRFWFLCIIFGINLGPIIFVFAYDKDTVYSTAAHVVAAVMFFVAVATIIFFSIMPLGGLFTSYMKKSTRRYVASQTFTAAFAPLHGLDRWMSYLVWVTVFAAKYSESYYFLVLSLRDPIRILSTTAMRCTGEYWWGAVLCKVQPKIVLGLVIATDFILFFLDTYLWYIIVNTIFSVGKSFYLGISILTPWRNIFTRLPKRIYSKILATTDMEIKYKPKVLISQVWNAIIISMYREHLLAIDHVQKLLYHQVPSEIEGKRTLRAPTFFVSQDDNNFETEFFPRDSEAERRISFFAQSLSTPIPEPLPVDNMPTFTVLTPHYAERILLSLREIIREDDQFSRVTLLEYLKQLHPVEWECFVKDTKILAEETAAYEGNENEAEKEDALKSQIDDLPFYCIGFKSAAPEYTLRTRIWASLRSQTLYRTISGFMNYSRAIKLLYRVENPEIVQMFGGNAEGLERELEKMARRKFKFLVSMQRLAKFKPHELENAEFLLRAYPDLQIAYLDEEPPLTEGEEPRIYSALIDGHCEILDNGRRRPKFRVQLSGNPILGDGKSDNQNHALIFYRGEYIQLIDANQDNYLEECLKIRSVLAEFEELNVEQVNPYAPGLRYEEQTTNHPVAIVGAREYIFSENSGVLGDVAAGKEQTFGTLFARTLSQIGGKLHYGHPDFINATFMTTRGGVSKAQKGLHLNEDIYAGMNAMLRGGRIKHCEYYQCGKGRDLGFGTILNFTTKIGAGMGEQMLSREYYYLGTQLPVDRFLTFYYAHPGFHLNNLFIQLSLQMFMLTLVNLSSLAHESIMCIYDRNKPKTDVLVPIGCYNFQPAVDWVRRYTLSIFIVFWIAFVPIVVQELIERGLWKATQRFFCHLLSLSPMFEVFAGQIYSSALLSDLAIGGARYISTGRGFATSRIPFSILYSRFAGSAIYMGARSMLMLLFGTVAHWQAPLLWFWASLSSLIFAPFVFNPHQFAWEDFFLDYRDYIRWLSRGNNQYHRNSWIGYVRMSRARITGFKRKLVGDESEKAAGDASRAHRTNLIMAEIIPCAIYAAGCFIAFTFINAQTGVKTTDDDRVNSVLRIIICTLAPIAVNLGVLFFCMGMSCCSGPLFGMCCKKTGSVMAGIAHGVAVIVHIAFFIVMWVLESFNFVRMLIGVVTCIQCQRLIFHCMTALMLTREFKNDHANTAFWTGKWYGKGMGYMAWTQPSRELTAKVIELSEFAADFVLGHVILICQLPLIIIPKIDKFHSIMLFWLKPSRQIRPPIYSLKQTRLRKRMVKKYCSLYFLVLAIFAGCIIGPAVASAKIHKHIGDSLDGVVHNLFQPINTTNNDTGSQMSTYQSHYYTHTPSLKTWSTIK
Method: as §1
1. Preparation of Permeabilized Saccharomyces cerevisiae Cells.
Permeabilization of yeast cells was performed according to Crotti et al. (Analytical Biochemistry, 292, 8-16, 2001) with some modifications. A 10 ml-starter culture of the S. cerevisiae strain in YPD medium (1% yeast extract, 2% bacto-peptone, 2% dextrose) with OD600=3-4 was used to inoculate 1 liter of YPD. The culture was grown at 30° C. until […]. Cells were collected by centrifugation (5,300 g for 15 min at 4° C.) and resuspended in buffer (40 mM EDTA, 100 mM β-mercaptoethanol) at 1 g of cell pellet/3.5 ml buffer. The cell suspension was shaken for 30 min at 30° C., followed by centrifugation at 12,000 g for 10 min at 4° C. The cell pellet was washed with 5 ml 0.8 M sorbitol and resuspended in 6.8 ml of 2.9 mM citric acid, 11.3 mM dibasic sodium phosphate, 1 mM EDTA, 0.8 M sorbitol, with constant shaking at 30)C for 30 min. After centrifugation at 12,000 g for […] at 4° C., the pellet was resuspended in 31.3 ml 50 mM Tris-HCl, pH 7.0, and incubated on ice for 5 min. The mixture was then centrifuged at 12,000 g for 10 min at 4 AC, and the pellet was resuspended in 1 ml of 50 mM Tris-HCl and 33% glycerol, pH 7.5. The permeabilized cell preparation was stored at […] in aliquots.
as §2, §3, §4
The assay was performed according to Mo et at (Journal of Biological Chemistry, 269, 31267-31274, 1994) and Taft et al. (The Journal of Antibiotics, 47, 1001-1009, 1994), in a 96-well Optiplate (PerkinElmer). To each well was added 3 μL 10× compound stock (in 100% DMSO), or 3 μL of 30 μg/mL caspofungin in 100% DMSO (as positive control), or 3 μL 100% DMSO (as negative control), followed by the addition of appropriate amount of glucan synthase sources (2 μL permeabilized PM503 cells, or 3 μL membrane preparations from either PM503, BWP17, or ND158). The reaction was initiated by adding 25 μL reaction buffer (0.6 mM UDP-Glucose 0.6 nCi [U-^14C]DUP-Glucose (327 mCi/mmol, Amersham Bioscience), 20 μM GTP-γ-S, 25 mM NaF, 7.5 mg/mL BSA, 8% glycerol in 75 mM Tris-HCl, pH 7.5). […]

Structure (SMILES)	IC50 [1] [nM]	IC50 [2] [nM]
CC1(COc2c(N3CCN(S(=O)(=O)NCc4ccc(N)c(F)c4)CC3)cnn(-c3cccc(Cl)c3)c2=O)CC1 [1712Z]	104	139
Cc1ccc(CNS(=O)(=O)N2CCN(c3cnn(-c4cc(F)cc(F)c4)c(=O)c3OC3CCC(F)C3)CC2)cc1N (stereo not drawn) [1715Z]	523	169
CC1(COc2c(N3CCN(S(=O)(=O)NCc4ccc(F)cc4)CC3)cnn(-c3cc(F)cc(F)c3)c2=O)CC1 [1734Z]	231	106
O=c1c(OCC2(CF)CC2)c(N2CCN(S(=O)(=O)NCc3ccc4ncoc4c3)CC2)cnn1-c1cccc(Cl)c1 [1743Z]	99.5	116
CC1CCC(Oc2c(N3CCN(S(=O)(=O)CCCF)CC3)cnn(-c3cccc(Cl)c3)c2=O)C1 (stereo not drawn) [1761Z]	312	136
COc1ccc(CS(=O)(=O)N2CCN(c3cnn(-c4cc(F)cc(F)c4)c(=O)c3OCC3(C)CC3)CC2)cc1N [1864Z]	86.9	104
Cc1cc(CS(=O)(=O)N2CCN(c3cnn(-c4cccc(Cl)c4)c(=O)c3OCC3(C)CC3)CC2)ccc1N [1869Z]	143	53.8
Cc1cc(CS(=O)(=O)N2CCN(c3cnn(-c4cc(F)cc(F)c4)c(=O)c3OCC3(C)CC3)CC2)ccc1N [1870Z]	125	53.6
CC1(COc2c(N3CCN(S(=O)(=O)Cc4ccc5ncoc5c4)CC3)cnn(-c3cc(F)cc(F)c3)c2=O)CC1 [1891Z]	122	87.5
Cc1nc2ccc(CS(=O)(=O)N3CCN(c4cnn(-c5cc(F)cc(F)c5)c(=O)c4OCC4(C)CC4)CC3)cc2o1 [1898Z]	102	85.4
CC1(COc2c(N3CCN(S(=O)(=O)Cc4cc(N)ccc4F)CC3)cnn(-c3cccc(Cl)c3)c2=O)CC1 [1904Z]	142	107
COCCNc1cccc(CS(=O)(=O)N2CCN(c3cnn(-c4cccc(Cl)c4)c(=O)c3OCC3(C)CC3)CC2)c1 [1951Z]	83	99.6
CNc1cccc(CS(=O)(=O)N2CCN(c3cnn(-c4cccc(Cl)c4)c(=O)c3OCC3(C)CC3)CC2)c1 [1969Z]	215	215
O=c1c2c(cnn1-c1cc(F)cc(F)c1)N1CCN(CC1)S(=O)(=O)/C=C/CCCCCCCCO2 [2022Z]	157	78.6
COc1cccc(CS(=O)(=O)N2CCN(c3cnn(-c4cccc(Cl)c4)c(=O)c3OCC3(C)CC3)CC2)c1N [Compound 1574ZI]	87.1	87.1
CC1(COc2c(N3CCN(S(=O)(=O)Cc4ccc(N)c(Cl)c4)CC3)cnn(-c3cc(F)cc(F)c3)c2=O)CC1 [Compound 1574Zo]	69	51.7
CC1(COc2c(N3CCN(S(=O)(=O)Cc4cccc(Cl)c4N)CC3)cnn(-c3cc(F)cc(F)c3)c2=O)CC1 [Compound 1574Zq]	138	69
CC1(COc2c(N3CCN(S(=O)(=O)Cc4cccnc4N)CC3)cnn(-c3cccc(Cl)c3)c2=O)CC1 [Compound 1574Zr]	239	110

— patent publication US8232274B2, “Pyridazinone derivatives useful as glucan synthase inhibitors” (Albany Molecular Research, Inc., priority 2007, dated 2012)
